Assay results reported in US8802597B2, “Herbicidal pyrimidines” (E I du Pont de Nemours and Company, priority 2003, dated 2014).
Read-outs that look alike come from different tables or passages of the source.

Columns and labels:
Assay in all cases: Test C pre/postemergence
Format in all cases: in vivo
[1] = system: velvetleaf (Abutilon theophrasti); details: Abutilon theophrasti; for pest or weed control at 16 g/ha: 16 g ai/ha; for pest or weed control at 31 g/ha: 31 g ai/ha; for pest or weed control at 62 g/ha: 62 g ai/ha
In short: (§1)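 We sprayed seeded pots preemergence and 2–18 cm seedlings postemergence with test chemicals in a non-phytotoxic solvent mixture including surfactant. Greenhouse plants were visually compared with untreated controls at 12 to 14 days and scored 0 (no effect) to 100 (complete control).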

[2] = system: yellow nutsedge (Cyperus esculentus); details: Cyperus; for pest or weed control at 16 g/ha: 16 g ai/ha; for pest or weed control at 31 g/ha: 31 g ai/ha; for pest or weed control at 62 g/ha: 62 g ai/ha
In short: as §1

[3] = system: common ragweed (Ambrosia elatior); details: Ambrosia artemisiifolia; for pest or weed control at 16 g/ha: 16 g ai/ha; for pest or weed control at 31 g/ha: 31 g ai/ha; for pest or weed control at 62 g/ha: 62 g ai/ha
In short: as §1

[4] = system: morningglory (Ipomoea coccinea); details: Ipomoea; for pest or weed control at 16 g/ha: 16 g ai/ha; for pest or weed control at 31 g/ha: 31 g ai/ha; for pest or weed control at 62 g/ha: 62 g ai/ha; for pest or weed control at 125 g/ha: 125 g ai/ha
In short: as §1

[5] = system: pigweed (Amaranthus retroflexus); details: Amaranthus retroflexus; for pest or weed control at 16 g/ha: 16 g ai/ha; for pest or weed control at 31 g/ha: 31 g ai/ha; for pest or weed control at 62 g/ha: 62 g ai/ha
In short: as §1

[6] = system: crabgrass (Digitaria sanguinalis); details: Digitaria sanguinalis; for pest or weed control at 16 g/ha: 16 g ai/ha; for pest or weed control at 31 g/ha: 31 g ai/ha; for pest or weed control at 62 g/ha: 62 g ai/ha; for pest or weed control at 125 g/ha: 125 g ai/ha
In short: as §1

[7] = system: common (oilseed) sunflower (Helianthus annuus); details: Helianthus annuus, pre-emergence, Preemergence, scale 0 to 100, 0 no effect, 100 complete control, read-out: Plant response rating, Sunflower
In short: as §1

[8] = system: giant foxtail (Setaria faberii); details: Setaria faberi; for pest or weed control at 125 g/ha: 125 g ai/ha; for pest or weed control at 16 g/ha: 16 g ai/ha; for pest or weed control at 31 g/ha: 31 g ai/ha; for pest or weed control at 62 g/ha: 62 g ai/ha
In short: as §1

[9] = system: cocklebur (Xanthium strumarium); details: Xanthium strumarium; for pest or weed control at 16 g/ha: 16 g ai/ha; for pest or weed control at 31 g/ha: 31 g ai/ha; for pest or weed control at 62 g/ha: 62 g ai/ha; for pest or weed control at 125 g/ha: 125 g ai/ha
In short: as §1

kochia (Kochia scoparia) = details: Bassia scoparia; for pest or weed control at 16 g/ha: 16 g ai/ha; for pest or weed control at 31 g/ha: 31 g ai/ha; for pest or weed control at 62 g/ha: 62 g ai/ha; for pest or weed control at 125 g/ha: 125 g ai/ha
In short: as §1

[10] = system: eastern black nightshade (Solanum ptycanthum); details: Solanum, pre-emergence, Preemergence, scale 0 to 100, 0 no effect, 100 complete control, read-out: Plant response rating, Nightshade
In short: as §1

[11] = system: woolly cupgrass (Eriochloa villosa); details: Eriochloa villosa; for pest or weed control at 16 g/ha: 16 g ai/ha; for pest or weed control at 31 g/ha: 31 g ai/ha; for pest or weed control at 62 g/ha: 62 g ai/ha; for pest or weed control at 125 g/ha: 125 g ai/ha
In short: as §1

[12] = post-emergence, Postemergence, read-out: Plant response rating (scale of 0 to 100), Velvetleaf
[13] = pre-emergence, Preemergence, scale 0 to 100, 0 no effect, 100 complete control, read-out: Plant response rating, Velvetleaf
[14] = post-emergence, Postemergence, read-out: Plant response rating (scale of 0 to 100), Nutsedge, Yellow
[15] = pre-emergence, Preemergence, scale 0 to 100, 0 no effect, 100 complete control, read-out: Plant response rating, Nutsedge, Yellow
[16] = post-emergence, Postemergence, read-out: Plant response rating (scale of 0 to 100), Ragweed
[17] = pre-emergence, Preemergence, scale 0 to 100, 0 no effect, 100 complete control, read-out: Plant response rating, Ragweed
[18] = post-emergence, Postemergence, read-out: Plant response rating (scale of 0 to 100), Morningglory
[19] = pre-emergence, Preemergence, scale 0 to 100, 0 no effect, 100 complete control, read-out: Plant response rating, Morningglory
[20] = post-emergence, Postemergence, read-out: Plant response rating (scale of 0 to 100), Pigweed
[21] = pre-emergence, Preemergence, scale 0 to 100, 0 no effect, 100 complete control, read-out: Plant response rating, Pigweed
[22] = post-emergence, Postemergence, read-out: Plant response rating (scale of 0 to 100), Crabgrass
[23] = pre-emergence, Preemergence, scale 0 to 100, 0 no effect, 100 complete control, read-out: Plant response rating, Crabgrass
[24] = post-emergence, Postemergence, read-out: Plant response rating (scale of 0 to 100), Foxtail, Giant
[25] = pre-emergence, Preemergence, scale 0 to 100, 0 no effect, 100 complete control, read-out: Plant response rating, Foxtail, Giant
[26] = post-emergence, Postemergence, read-out: Plant response rating (scale of 0 to 100), Cocklebur
[27] = pre-emergence, Preemergence, scale 0 to 100, 0 no effect, 100 complete control, read-out: Plant response rating, Cocklebur
[28] = post-emergence, Postemergence, read-out: Plant response rating (scale of 0 to 100), Kochia
[29] = pre-emergence, Preemergence, scale 0 to 100, 0 no effect, 100 complete control, read-out: Plant response rating, Kochia
[30] = post-emergence, Postemergence, read-out: Plant response rating (scale of 0 to 100), Cupgrass, Woolly
[31] = pre-emergence, Preemergence, scale 0 to 100, 0 no effect, 100 complete control, read-out: Plant response rating, Cupgrass, Woolly

Work on `Nc1nc(-c2ccc(Cl)cc2)nc(C(=O)O)c1Cl` [Compound 65, 6-amino-5-chloro-2-(4-chlorophenyl)-4-pyrimidinecarboxylic acid] yielded a pest or weed control at 16 g/ha [1, 12] of 65%, a pest or weed control at 31 g/ha [1, 12] of 80% and a pest or weed control at 62 g/ha [1, 12] of 80%. For the same compound, the pest or weed control at 125 g/ha ([1]; post-emergence, Postemergence, 125 g ai/ha, scale 0 to 100 (0 no effect, 100 complete control), read-out: Velvetleaf plant response rating) was 90%, the pest or weed control at 16 g/ha [1, 13] was 0% and the pest or weed control at 31 g/ha [1, 13] was 40%. For the same compound, the pest or weed control at 62 g/ha [1, 13] was 80%, the pest or weed control at 16 g/ha [2, 14] was 0% and the pest or weed control at 31 g/ha [2, 14] was 0%. The pest or weed control at 62 g/ha [2, 14] was 20%, the pest or weed control at 125 g/ha ([2]; post-emergence, Postemergence, 125 g ai/ha, scale 0 to 100 (0 no effect, 100 complete control), read-out: Nutsedge, Yellow plant response rating) was 50% and the pest or weed control at 16 g/ha [2, 15] was 0%. The pest or weed control at 31 g/ha [2, 15] was 0%, the pest or weed control at 62 g/ha [2, 15] was 30% and the pest or weed control at 16 g/ha [3, 16] was 80%. The pest or weed control at 31 g/ha [3, 16] was 90%, the pest or weed control at 62 g/ha [3, 16] was 95% and the pest or weed control at 125 g/ha ([3]; post-emergence, Postemergence, 125 g ai/ha, scale 0 to 100 (0 no effect, 100 complete control), read-out: Ragweed plant response rating) was 95%. For the same compound, the pest or weed control at 16 g/ha [3, 17] was 85%, the pest or weed control at 31 g/ha [3, 17] was 85% and the pest or weed control at 62 g/ha [3, 17] was 90%. For the same compound, the pest or weed control at 16 g/ha [4, 18] was 90%, the pest or weed control at 31 g/ha [4, 18] was 90% and the pest or weed control at 62 g/ha [4, 18] was 90%. It also gave a pest or weed control at 125 g/ha ([4]; post-emergence, Postemergence, scale 0 to 100 (0 no effect, 100 complete control), read-out: Morningglory plant response rating) of 95%, a pest or weed control at 16 g/ha [4, 19] of 0% and a pest or weed control at 31 g/ha [4, 19] of 0%. For the same compound, the pest or weed control at 62 g/ha [4, 19] was 20%, the pest or weed control at 125 g/ha ([4]; pre-emergence, Preemergence, scale 0 to 100, read-out: Plant response rating, Morningglory) was 100% and the pest or weed control at 16 g/ha [5, 20] was 90%. It also gave a pest or weed control at 31 g/ha [5, 20] of 90%, a pest or weed control at 62 g/ha [5, 20] of 100% and a pest or weed control at 125 g/ha ([5]; post-emergence, Postemergence, 125 g ai/ha, scale 0 to 100 (0 no effect, 100 complete control), read-out: Pigweed plant response rating) of 100%. The pest or weed control at 16 g/ha [5, 21] was 40%, the pest or weed control at 31 g/ha [5, 21] was 80% and the pest or weed control at 62 g/ha [5, 21] was 80%. For the same compound, the pest or weed control at 16 g/ha [6, 22] was 80%, the pest or weed control at 31 g/ha [6, 22] was 80% and the pest or weed control at 62 g/ha [6, 22] was 90%. The pest or weed control at 125 g/ha ([6]; post-emergence, Postemergence, scale 0 to 100 (0 no effect, 100 complete control), read-out: Crabgrass plant response rating) was 90%, the pest or weed control at 16 g/ha [6, 23] was 0% and the pest or weed control at 31 g/ha [6, 23] was 20%. The pest or weed control at 62 g/ha [6, 23] was 70%, the pest or weed control at 125 g/ha ([6]; pre-emergence, Preemergence, scale 0 to 100, read-out: Plant response rating, Crabgrass) was 80% and the pest or weed control at 16 g/ha ([7]; 16 g ai/ha) was 40%. The pest or weed control at 31 g/ha ([7]; 31 g ai/ha) was 70%, the pest or weed control at 62 g/ha ([7]; 62 g ai/ha) was 95% and the pest or weed control at 125 g/ha ([8]; post-emergence, Postemergence, scale 0 to 100 (0 no effect, 100 complete control), read-out: Foxtail, Giant plant response rating) was 70%. For the same compound, the pest or weed control at 16 g/ha [8, 24] was 50%, the pest or weed control at 31 g/ha [8, 24] was 60% and the pest or weed control at 62 g/ha [8, 24] was 70%. For the same compound, the pest or weed control at 16 g/ha [8, 25] was 0%, the pest or weed control at 31 g/ha [8, 25] was 10% and the pest or weed control at 62 g/ha [8, 25] was 50%. For the same compound, the pest or weed control at 125 g/ha ([8]; pre-emergence, Preemergence, scale 0 to 100, read-out: Plant response rating, Foxtail, Giant) was 60%, the pest or weed control at 16 g/ha [9, 26] was 90% and the pest or weed control at 31 g/ha [9, 26] was 100%. It also gave a pest or weed control at 62 g/ha [9, 26] of 100%, a pest or weed control at 125 g/ha ([9]; post-emergence, Postemergence, scale 0 to 100 (0 no effect, 100 complete control), read-out: Cocklebur plant response rating) of 100% and a pest or weed control at 16 g/ha [9, 27] of 0%. It also gave a pest or weed control at 31 g/ha [9, 27] of 30%, a pest or weed control at 62 g/ha [9, 27] of 50% and a pest or weed control at 125 g/ha ([9]; pre-emergence, Preemergence, scale 0 to 100, read-out: Plant response rating, Cocklebur) of 90%. The pest or weed control at 16 g/ha (kochia (Kochia scoparia); [28]) was 85%, the pest or weed control at 31 g/ha (kochia (Kochia scoparia); [28]) was 85% and the pest or weed control at 62 g/ha (kochia (Kochia scoparia); [28]) was 85%. The pest or weed control at 125 g/ha (kochia (Kochia scoparia); post-emergence, Postemergence, scale 0 to 100 (0 no effect, 100 complete control), read-out: Kochia plant response rating) was 90%, the pest or weed control at 16 g/ha (kochia (Kochia scoparia); [29]) was 0% and the pest or weed control at 31 g/ha (kochia (Kochia scoparia); [29]) was 0%. It also gave a pest or weed control at 62 g/ha (kochia (Kochia scoparia); [29]) of 50%, a pest or weed control at 125 g/ha (kochia (Kochia scoparia); pre-emergence, Preemergence, scale 0 to 100, read-out: Plant response rating, Kochia) of 70% and a pest or weed control at 16 g/ha ([10]; 16 g ai/ha) of 0%. The pest or weed control at 31 g/ha ([10]; 31 g ai/ha) was 0%, the pest or weed control at 16 g/ha [11, 30] was 60% and the pest or weed control at 31 g/ha [11, 30] was 80%. It also gave a pest or weed control at 62 g/ha [11, 30] of 85%, a pest or weed control at 125 g/ha ([11]; post-emergence, Postemergence, scale 0 to 100 (0 no effect, 100 complete control), read-out: Cupgrass, Woolly plant response rating) of 85% and a pest or weed control at 16 g/ha [11, 31] of 0%. The pest or weed control at 31 g/ha [11, 31] was 0%, the pest or weed control at 62 g/ha [11, 31] was 5% and the pest or weed control at 125 g/ha ([11]; pre-emergence, Preemergence, scale 0 to 100, read-out: Plant response rating, Cupgrass, Woolly) was 70%.
